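Following 48 hours of exposure in 96-well plates, responses at five concentrations were used to interpolate endpoints linearly. Abbreviation: GI50, concentration required for 50% inhibition of growth. TGI denotes the concentration required for complete inhibition of growth.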
Assays:
Experiment in all cases: growth of human tumour cells (NCI), 48 h
[1] = tested on: OVCAR-4 ovarian
[2] = tested on: SK-OV-3 ovarian
[3] = tested on: CAKI-1 renal
[4] = tested on: BT-549 breast
[5] = tested on: SK-MEL-5 melanoma
[6] = tested on: SK-MEL-28 melanoma
[7] = tested on: PC-3 prostate
[8] = tested on: UACC-257 melanoma
[9] = tested on: COLO 205 colon
[10] = tested on: NCI-H522 lung
[11] = tested on: MALME-3M melanoma
[12] = tested on: SN12C renal
[13] = tested on: OVCAR-3 ovarian
[14] = tested on: OVCAR-5 ovarian
[15] = tested on: UO-31 renal
[16] = tested on: DU-145 prostate
[17] = tested on: SNB-19 CNS
[18] = tested on: UACC-62 melanoma
[19] = tested on: HCT-15 colon
[20] = tested on: SF-295 CNS
[21] = tested on: A549 NSCLC
[22] = tested on: CCRF-CEM leukemia
[23] = tested on: OVCAR-8 ovarian
[24] = tested on: LOX IMVI melanoma
[25] = tested on: K-562 leukemia
[26] = tested on: TK-10 renal
[27] = tested on: SK-MEL-2 melanoma
[28] = tested on: A498 renal
[29] = tested on: HT29 colon

Cc1ccc(/C(=C/C=C(C#N)C#N)Sc2ccccn2)cc1
GI50 [1]: 3.01 µM | TGI [1]: 11.6 µM | GI50 [2]: 19.6 µM | TGI [2]: 65.8 µM | GI50 [3]: 5.62 µM | TGI [3]: 11.8 µM | GI50 [4]: 2.59 µM | TGI [4]: 6.85 µM | GI50 [5]: 2.51 µM | TGI [5]: 7.55 µM | GI50 [6]: 2.08 µM | TGI [6]: 4.51 µM | GI50 [7]: 4.65 µM | TGI [7]: > 20.5 µM | GI50 [8]: 14.6 µM | TGI [8]: 28.1 µM | GI50 [9]: 1.72 µM | TGI [9]: 3.79 µM | GI50 [10]: 6.49 µM | TGI [10]: 19.6 µM | GI50 [11]: 4.09 µM | TGI [11]: 17.3 µM | GI50 [12]: 1.91 µM | TGI [12]: 4.72 µM | GI50 [13]: 2.09 µM | TGI [13]: 8.25 µM | GI50 [14]: 4.13 µM | TGI [14]: 13.9 µM | GI50 [15]: 3.21 µM | GI50 [16]: 2.28 µM | TGI [16]: 6.06 µM | GI50 [17]: 10.1 µM | TGI [17]: > 45.5 µM | GI50 [18]: 2.51 µM | TGI [18]: 7.23 µM | GI50 [19]: 4.09 µM | TGI [19]: 15.8 µM | GI50 [20]: 8.72 µM | TGI [20]: 22.8 µM | GI50 [21]: 12.3 µM | TGI [21]: 31.8 µM | GI50 [22]: 0.168 µM | TGI [22]: 0.575 µM | GI50 [23]: 7.41 µM | TGI [23]: 24.3 µM | GI50 [24]: 1.83 µM | TGI [24]: 4.05 µM | GI50 [25]: 1.55 µM | TGI [25]: 10.8 µM | GI50 [26]: 3.02 µM | TGI [26]: 12.1 µM | GI50 [27]: 7.15 µM | TGI [27]: 35.6 µM | GI50 [28]: 11.6 µM | TGI [28]: 24 µM | GI50 [29]: 2.89 µM

— PubChem BioAssay (NCI)
